# Target: PKBα (Homo sapiens, UniProt P31749)
# Assay: PKB kinase assay (P33-labeled ATP, synthetic peptide substrate, filter plate)
# Assay type: biochemical
# Details: PKBα enzyme (full length or kinase domain with pleckstrin domain deleted)
# Description: The kinase assay for evaluating PKB activity comprises active PKB enzymes, a PKB specific substrate, and P^33-labeled ATP. Two forms of PKBα enzymes were used, the full length PKBα and a kinase domain of PKBα with pleckstrin domain (amino acids 1-117) deleted. Both PKB enzymes were obtained from Upstate cell signaling solutions (Cat.# 14-276 and 14-341). The PKB substrate used is a synthetic peptide (ARKRERTYSFGHHA (SEQ ID NO: 1)) as described in Obata et al., J. Biol. Chem. 275 (46), 36108-36115 (2000). The phosphorylated substrate was captured by a phosphocellulose membrane filter plate (MILLIPORE) and measured by a Wallac Microbeta liquid scintillation counter (Perkin Elmer). Table 1 provides the IC50 values obtained for each of the examples with respect to PKBα.
# PKBα, sequence (P31749 118-480 limits assumed): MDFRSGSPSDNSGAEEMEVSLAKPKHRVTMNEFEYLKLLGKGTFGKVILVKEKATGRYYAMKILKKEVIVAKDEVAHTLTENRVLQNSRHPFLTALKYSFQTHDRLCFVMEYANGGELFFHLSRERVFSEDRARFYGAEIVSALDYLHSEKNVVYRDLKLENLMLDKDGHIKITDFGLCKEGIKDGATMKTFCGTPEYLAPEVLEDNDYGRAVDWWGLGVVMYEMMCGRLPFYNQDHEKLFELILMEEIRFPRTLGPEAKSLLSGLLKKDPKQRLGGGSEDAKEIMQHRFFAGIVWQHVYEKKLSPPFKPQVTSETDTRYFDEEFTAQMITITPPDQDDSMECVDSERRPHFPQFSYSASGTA
row,IC50 [µM],SMILES
1,< 0.05,"N[C@H](CNc1cc(-c2ccc3cnccc3c2)no1)Cc1ccc(Br)cc1 [Example 12, N-((S)-2-Amino-3-(4-bromophenyl)propyl)-3-(isoquinolin-6-yl)isoxazol-5-amine]"
2,0.05 to 1,"N[C@H](CNc1cc(-c2ccc3cnccc3c2)no1)Cc1ccccc1 [Example 15, N-((S)-2-Amino-3-phenylpropyl)-3-(isoquinolin-6-yl)isoxazol-5-amine]"
3,< 0.05,"N[C@H](CNc1cc(-c2ccc3cnccc3c2)no1)Cc1cccc(Cl)c1 [Example 16, N-((S)-2-Amino-3-(3-chlorophenyl)propyl)-3-(isoquinolin-6-yl)isoxazol-5-amine]"
4,1 to 10,"Cc1c(-c2ccc3cnccc3c2)noc1NC[C@@H](N)Cc1ccccc1 [Example 17, N-((S)-2-Amino-3-phenylpropyl)-3-(isoquinolin-6-yl)-4-methylisoxazol-5-amine]"
5,0.05 to 1,"N[C@H](CNc1cc(-c2ccc3cnccc3c2)no1)Cc1ccccc1Cl [Example 18, N-((S)-2-Amino-3-(2-chlorophenyl)propyl)-3-(isoquinolin-6-yl)isoxazol-5-amine]"
6,0.05 to 1,"N[C@H](CNc1cc(-c2ccc3cnccc3c2)no1)Cc1ccc2ccccc2c1 [Example 19, N-((S)-2-Amino-3-(naphthalen-2-yl)propyl)-3-(isoquinolin-6-yl)isoxazol-5-amine]"
7,0.05 to 1,"N[C@H](CNc1cc(-c2ccc3cnccc3c2)on1)Cc1cccc(Cl)c1 [Example 21, N-((S)-2-Amino-3-(3-chlorophenyl)propyl)-5-(isoquinolin-6-yl)isoxazol-3-amine]"
8,0.05 to 1,"N[C@H](CNc1cc(-c2ccc3cnccc3c2)on1)Cc1ccc(Cl)cc1 [Example 22, N-((S)-2-Amino-3-(4-chlorophenyl)propyl)-5-(isoquinolin-6-yl)isoxazol-3-amine]"
9,1 to 10,"N[C@H](CCc1cc(-c2ccc3cnccc3c2)no1)Cc1ccccc1 [Example 23, (2R)-4-(3-(isoquinolin-6-yl)isoxazol-5-yl)-1-phenylbutan-2-amine]"
10,1 to 10,"N[C@H](CCc1cc(-c2ccc3cnccc3c2)no1)Cc1ccccc1Cl [Example 27, (2R)-1-(2-chlorophenyl)-4-(3-(isoquinolin-6-yl)isoxazol-5-yl)butan-2-amine]"
11,1 to 10,"N[C@H](CNc1onc(-c2ccc3cnccc3c2)c1Cc1ccccc1)Cc1ccccc1 [Example 31, N-((S)-2-amino-3-phenylpropyl)-4-benzyl-3-(isoquinolin-6-yl)isoxazol-5-amine]"
12,0.05 to 1,"N[C@H](CNc1cc(-c2ccc3cnccc3c2)no1)Cc1c[nH]c2ccccc12 [Example 32, N-((S)-2-amino-3-(1H-indol-3-yl)propyl)-3-(isoquinolin-6-yl)isoxazol-5-amine]"
13,0.05 to 1,"N[C@H](CNc1onc(-c2ccc3cnccc3c2)c1Cc1ccccc1)Cc1c[nH]c2ccccc12 [Example 33, N-((S)-2-Amino-3-(1H-indol-3-yl)propyl)-4-benzyl-3-(isoquinolin-6-yl)isoxazol-5-amine]"
14,1 to 10,"CC(C)Cc1c(-c2ccc3cnccc3c2)noc1NC[C@@H](N)Cc1c[nH]c2ccccc12 [Example 34, N-((S)-2-Amino-3-(1H-indol-3-yl)propyl)-4-isobutyl-3-(isoquinolin-6-yl)isoxazol-5-amine]"
15,1 to 10,"NCCc1c(-c2ccc3cnccc3c2)noc1NC[C@@H](N)Cc1c[nH]c2ccccc12 [Example 35, N-((S)-2-Amino-3-(1H-indol-3-yl)propyl)-4-(2-aminoethyl)-3-(isoquinolin-6-yl)isoxazol-5-amine]"
16,1 to 10,"NCCNc1onc(-c2ccc3cnccc3c2)c1Cc1ccccc1 [Example 36, N-(2-Aminoethyl)-4-benzyl-3-(isoquinolin-6-yl)isoxazol-5-amine]"

# More lines, now with the values behind:
row,SMILES,IC50 [µM]
1,"N[C@H](CNc1nnc(-c2ccc3cnccc3c2)o1)Cc1ccc(C(F)(F)F)cc1 [Example 1, N-((S)-2-amino-3-(4-(trifluoromethyl)phenyl)propyl)-5-(isoquinolin-6-yl)-1,3,4-oxadiazol-2-amine]",0.05 to 1
2,"Cc1n[nH]c2ccc(-c3nnc(NC[C@@H](N)Cc4cccc(C(F)(F)F)c4)o3)cc12 [Example 2, N-((S)-2-amino-3-(3-(trifluoromethyl)phenyl)propyl)-5-(3-methyl-1H-indazol-5-yl)-1,3,4-oxadiazol-2-amine]",1 to 10
3,"N[C@H](CCc1nc(-c2ccc3cnccc3c2)no1)Cc1ccc(C(F)(F)F)cc1 [Example 3, (2R)-4-(3-(Isoquinolin-6-yl)-1,2,4-oxadiazol-5-yl)-1-(4-(trifluoromethyl)phenyl)butan-2-amine]",1 to 10
4,"N[C@@H](Cc1ccc(C(F)(F)F)cc1)Cc1nc(-c2ccc3cnccc3c2)no1 [Example 4, (2S)-1-(3-(Isoquinolin-6-yl)-1,2,4-oxadiazol-5-yl)-3-(4-(trifluoromethyl)phenyl)propan-2-amine]",1 to 10
5,"N[C@@H](Cc1ccc(C(F)(F)F)cc1)c1nc(-c2ccc3cnccc3c2)no1 [Example 5, (1S)-1-(3-(Isoquinolin-6-yl)-1,2,4-oxadiazol-5-yl)-2-(4-(trifluoromethyl)phenyl)ethanamine]",1 to 10
6,"COc1ccc(CNc2ncc(-c3ccc4cnccc4c3)o2)cc1 [Example 6, N-(4-Methoxybenzyl)-5-(isoquinolin-6-yl)oxazol-2-amine]",1 to 10
7,"COc1ccc(CNc2ncc(-c3ccccc3)o2)cc1 [Example 7, N-(4-Methoxybenzyl)-5-phenyloxazol-2-amine]",1 to 10
8,"COc1ccc(CNc2ncc(-c3ccncc3)o2)cc1 [Example 8, N-(4-Methoxybenzyl)-5-(pyridin-4-yl)oxazol-2-amine]",1 to 10
9,"Cc1n[nH]c2ccc(-c3cnc(NC[C@@H](N)Cc4ccc(C(F)(F)F)cc4)o3)cc12 [Example 9, N-((S)-2-Amino-3-(4-(trifluoromethyl)phenyl)propyl)-5-(3-methyl-1H-indazol-5-yl)oxazol-2-amine]",0.05 to 1
10,"Cc1n[nH]c2ccc(-c3cnc(NCc4ccccc4)o3)cc12 [Example 10, N-Benzyl-5-(3-methyl-1H-indazol-5-yl)oxazol-2-amine]",1 to 10
11,"N[C@H](CNc1cc(-c2ccc3cnccc3c2)no1)Cc1ccc(Cl)cc1 [Example 11, N-((S)-2-Amino-3-(4-chlorophenyl)propyl)-3-(isoquinolin-6-yl)isoxazol-5-amine]",< 0.05
12,"N[C@H](CNc1cc(-c2ccc3cnccc3c2)no1)Cc1cccc(C(F)(F)F)c1 [Example 13, N-((S)-2-Amino-3-(3-(trifluoromethyl)phenyl)propyl)-3-(isoquinolin-6-yl)isoxazol-5-amine]",< 0.05
13,"N[C@H](CNc1cc(-c2ccc3cnccc3c2)no1)Cc1ccc(C(F)(F)F)cc1 [Example 14, N-((S)-2-Amino-3-(4-(trifluoromethyl)phenyl)propyl)-3-(isoquinolin-6-yl)isoxazol-5-amine]",< 0.05
14,"N[C@H](CNc1cc(-c2ccc3cnccc3c2)on1)Cc1ccc(C(F)(F)F)cc1 [Example 20, N-((S)-2-Amino-3-(4-(trifluoromethyl)phenyl)propyl)-5-(isoquinolin-6-yl)isoxazol-3-amine]",0.05 to 1
15,"N[C@H](CCc1cc(-c2ccc3cnccc3c2)no1)Cc1ccc(C(F)(F)F)cc1 [Example 24, (2R)-4-(3-(Isoquinolin-6-yl)isoxazol-5-yl)-1-(4-(trifluoromethyl)phenyl)butan-2-amine]",< 0.05
16,"N[C@H](CCc1cc(-c2ccc3cnccc3c2)no1)Cc1ccc(Cl)cc1 [Example 25, (2R)-1-(4-Chlorophenyl)-4-(3-(isoquinolin-6-yl)isoxazol-5-yl)butan-2-amine]",0.05 to 1
17,"N[C@H](CCc1cc(-c2ccc3cnccc3c2)no1)Cc1cccc(Cl)c1 [Example 26, (2R)-1-(3-chlorophenyl)-4-(3-(isoquinolin-6-yl)isoxazol-5-yl)butan-2-amine]",0.05 to 1
18,"N[C@@H](CCc1cc(-c2ccc3cnccc3c2)no1)Cc1ccc(C(F)(F)F)cc1 [Example 28, (2S)-4-(3-(Isoquinolin-6-yl)isoxazol-5-yl)-1-(4-(trifluoromethyl)phenyl)butan-2-amine]",0.05 to 1
19,"N[C@H](CCc1cc(-c2ccc3cnccc3c2)no1)Cc1cccc(C(F)(F)F)c1 [Example 29, (2R)-4-(3-(Isoquinolin-6-yl)isoxazol-5-yl)-1-(3-(trifluoromethyl)phenyl)butan-2-amine]",0.05 to 1
20,"N[C@H](CCc1cc(-c2ccc3cnccc3c2)no1)Cc1ccc(Cl)cc1Cl [Example 30, (2R)-1-(2,4-Dichlorophenyl)-4-(3-(isoquinolin-6-yl)isoxazol-5-yl)butan-2-amine]",0.05 to 1
21,"N[C@H](CCn1cc(-c2ccc3[nH]ncc3c2)nn1)Cc1ccc(C(F)(F)F)cc1 [Example 37, (2S)-4-(4-(1H-Indazol-5-yl)-1H-1,2,3-triazol-1-yl)-1-(4-(trifluoromethyl)phenyl)butan-2-amine]",0.05 to 1
22,"Cc1n[nH]c2ccc(-c3cn(CC[C@@H](N)Cc4ccc(C(F)(F)F)cc4)nn3)cc12 [Example 38, (2S)-4-(4-(3-Methyl-1H-indazol-5-yl)-1H-1,2,3-triazol-1-yl)-1-(4-(trifluoromethyl)phenyl)butan-2-amine]",0.05 to 1
23,"N[C@H](CCn1cc(-c2ccc3[nH]ncc3c2)nn1)Cc1ccccc1 [Example 39, (2S)-4-(4-(1H-Indazol-5-yl)-1H-1,2,3-triazol-1-yl)-1-phenylbutan-2-amine]",0.05 to 1
24,"Cc1n[nH]c2ccc(-c3cn(CC[C@@H](N)Cc4ccccc4)nn3)cc12 [Example 40, (2S)-4-(4-(3-Methyl-1H-indazol-5-yl)-1H-1,2,3-triazol-1-yl)-1-phenylbutan-2-amine]",1 to 10

# From patent publication US7897619B2, “Heterocyclic modulators of PKB” (Amgen Inc., priority 2007, dated 2011)
